# Data from patent US20260262642A1, “Compositions Containing Guanidine and 1,2-Benzisothiazoline-3-On” (priority 2023, published 2026).
# Where a name gives a salt, the structure may show the parent alone.
# Assays:
# Type in all cases: cell-based
# [1] = test system: Bacteria mixture (Pseudomonas spp. DSM 33933, Pseudomonas aeruginosa DSM 33935, Pseudomonas oleovorans DSM 33936, Pseudomonas spec. DSM 33937, Pseudomonas …); experiment: Stability of emulsion paint against microbial infestation, inoculated with bacteria mixture, semiquantitative streak evaluation; parameters: key: 0: No growth; Minimal growth, 1 to 10 colonies visible over the entire streak; 2: Light growth, maximum 100 colonies; Moderate growth, maximum 300 to 400 colonies; Uniform growth, >400 colonies, single colonies still clearly recognizable; 5: Heavy growth, too many colonies to count, but no growth over the entire streak; 6: Full growth, barely any single colonies still apparent, growth over the entire streak; conditions: for Bacterial growth Day 1: directly after inoculation; for Bacterial growth Day 6: incubation at 30° C.
# Protocol: The detergent was a heavy-duty laundry detergent without preservatives (pH 8.1), and the cleaning composition was an all-purpose detergent without preservatives (pH 7.6), each likewise made in the laboratory, without addition of the otherwise usual conventional preservatives. To each paint was added—individually and in combination—particular concentrations of guanidinium hydrochloride and benzisothiazolinone (BIT). The detergent and cleaning composition were admixed with particular concentrations of guanidinium hydrochloride and benzisothiazolinone (BIT). The resultant batches of the paint thus prepared were inoculated with a mixture of various bacteria; the batches of the detergent and cleaning composition thus prepared were inoculated with a yeast mixture. • Pseudomonas spp. (Pseudomonas oleovorans group) DSM 33933 • Pseudomonas aeruginosa DSM 33935 • Pseudomonas oleovorans DSM 33936 • Pseudomonas spec. DSM 33937 • Pseudomonas aeruginosa DSM 33938 The inoculum was added to the respective sample in each inoculation at 2% (v/w) as a fresh cell suspension in a physiological saline solution (0.9% NaCl). The cell count of the inoculum added was 10^9/ml for the bacteria mixture, 10^8/ml for the yeast mixture, consisting in equal parts of the individual bacteria strains or yeast strains. The cell suspension of the bacteria mixture was produced by growing the individual bacteria at 30° C. for 24 h in liquid culture on a shaker. The growth medium used for the bacteria was Müller-Hinton liquid medium. After growing, the individual liquid cultures were centrifuged, and the cells were resuspended in physiological saline solution. In order to adjust the mixture to a total cell count of 10^9/ml, the individual bacteria suspensions, if necessary, were diluted accordingly before being combined with saline solution. The cell count of the inoculum was determined in each case by chamber counting. In examples 2 to 4, the samples were inoculated once with the respective cell suspensions (2% v/w) and the development of the bacteria or yeasts was followed by a semiquantitative evaluation method. In the inoculated samples, microbial infestation was evaluated in each case directly after inoculation on day 1 and on day 6 (emulsion paint) after incubation at 30° C. for a further 5 days, or on day 3 (detergent, cleaning composition) after incubation at 30° C. for a further 2 days. For this purpose, an aliquot was taken from each sample after homogenization using a sterile plastic inoculation loop (10 μl) and streaked evenly on agar plates (tryptic soy agar in the case of bacteria, Sabouraud glucose-agar in the case of yeasts). […] After incubation, the bacterial or yeast colonies that had grown on the agar plates were visually evaluated and quantified according to the following scheme: [table] […]
# [2] = test system: Yeast mixture (Pichia manshurica DSM 12249, Rhodotorula mucilaginosa DSM 12248, Candida boidinii DSM 13622, Candida albicans DSM 1386); experiment: Stability of all-purpose detergent (cleaning composition) against microbial infestation, inoculated with yeast mixture, semiquantitative streak evaluation; parameters: key to Yeast growth Day 1: 0: No growth; Minimal growth, 1 to 10 colonies visible over the entire streak; 2: Light growth, maximum 100 colonies; Moderate growth, maximum 300 to 400 colonies; Uniform growth, >400 colonies, single colonies still clearly recognizable; 5: Heavy growth, too many colonies to count, but no growth over the entire streak; 6: Full growth, barely any single colonies still apparent, growth over the entire streak; conditions: for Yeast growth Day 1: directly after inoculation; for Yeast growth Day 3: incubation at 30° C.
# Protocol: (§1) The detergent was a heavy-duty laundry detergent without preservatives (pH 8.1), and the cleaning composition was an all-purpose detergent without preservatives (pH 7.6), each likewise made in the laboratory, without addition of the otherwise usual conventional preservatives. To each paint was added—individually and in combination—particular concentrations of guanidinium hydrochloride and benzisothiazolinone (BIT). The detergent and cleaning composition were admixed with particular concentrations of guanidinium hydrochloride and benzisothiazolinone (BIT). The resultant batches of the paint thus prepared were inoculated with a mixture of various bacteria; the batches of the detergent and cleaning composition thus prepared were inoculated with a yeast mixture. • Pichia manshurica DSM 12249 • Rhodotorula mucilaginosa DSM 12248 • Candida boidinii DSM 13622 • Candida albicans DSM 1386 The inoculum was added to the respective sample in each inoculation at 2% (v/w) as a fresh cell suspension in a physiological saline solution (0.9% NaCl). The cell count of the inoculum added was 10^9/ml for the bacteria mixture, 10^8/ml for the yeast mixture, consisting in equal parts of the individual bacteria strains or yeast strains. The cell suspension of the yeast mixture was produced by growing the yeasts on Sabouraud glucose-agar at 25° C. for 48 hours and washing down the cell lawn with physiological saline solution (0.9% NaCl). Further steps for establishment of a cell count of the inoculum suspension of 10^8/ml were effected analogously to the production of the bacteria suspension. In examples 2 to 4, the samples were inoculated once with the respective cell suspensions (2% v/w) and the development of the bacteria or yeasts was followed by a semiquantitative evaluation method. In the inoculated samples, microbial infestation was evaluated in each case directly after inoculation on day 1 and on day 6 (emulsion paint) after incubation at 30° C. for a further 5 days, or on day 3 (detergent, cleaning composition) after incubation at 30° C. for a further 2 days. For this purpose, an aliquot was taken from each sample after homogenization using a sterile plastic inoculation loop (10 μl) and streaked evenly on agar plates (tryptic soy agar in the case of bacteria, Sabouraud glucose-agar in the case of yeasts). The streaked agar plates were then incubated at 30° C. for 48 hours (bacteria) or at 25° C. for 72 hours (yeasts). After incubation, the bacterial or yeast colonies that had grown on the agar plates were visually evaluated and quantified according to the following scheme: [table] Inoculation 2% (w/v) with Yeast Mixture, Cell Count 10^8/ml
# [3] = test system: Yeast mixture (Pichia manshurica DSM 12249, Rhodotorula mucilaginosa DSM 12248, Candida boidinii DSM 13622, Candida albicans DSM 1386); experiment: Stability of heavy-duty laundry detergent against microbial infestation, inoculated with yeast mixture, semiquantitative streak evaluation; parameters: key: 0: No growth; Minimal growth, 1 to 10 colonies visible over the entire streak; 2: Light growth, maximum 100 colonies; Moderate growth, maximum 300 to 400 colonies; Uniform growth, >400 colonies, single colonies still clearly recognizable; 5: Heavy growth, too many colonies to count, but no growth over the entire streak; 6: Full growth, barely any single colonies still apparent, growth over the entire streak; conditions: for Yeast growth Day 1: directly after inoculation; for Yeast growth Day 3: incubation at 30° C.
# Protocol: as §1, with “w/v” for “(w/v)”, “a East” for “Yeast”
# [4] = test system: Pseudomonas spec. DSM 115322; experiment: Study of the synergistic interaction: minimum inhibitory concentrations (MICs) and synergy index in Müller-Hinton broth, microplates; conditions: 48 hours at 30° C.; for Synergy index Qa/QA + Qb/QB: sole agent
# Protocol: The test organism used was a Gram-negative bacterial species from the group of pseudomonads, Pseudomonas spec. DSM 115322. For this purpose, mixtures with different concentrations of the respective actives were prepared and tested for their effect on pseudomonads. The test was run in Müller-Hinton broth MHB with a cell density of 10^6 microbes per ml. The incubation was run in microplates at 30° C. for 48 hours. After 48 hours, the batches were evaluated for turbidity resulting from growth, and optical density was additionally determined photometrically. In this way, the minimum inhibitory concentrations (MICs) of the two actives were determined individually and in combination. The synergism that occurred was represented numerically by calculating the synergy index (SI). The calculation was done according to the standard method of F. C. Kull et al., Applied Microbiology, vol. 9 (1961), p. 538. This involves calculating the synergy index (SI) by the following formula: […] Calculation of the synergy index of guanidine and BIT with respect to Pseudomonas spec.
# [5] = all-purpose detergent +100 ppm BIT
# [6] = emulsion paint +6000 ppm guanidine hydrochloride (3708 ppm guanidine)
# [7] = all-purpose detergent +8000 ppm guanidine hydrochloride (4944 ppm guanidine)
# [8] = detergent +8000 ppm guanidine hydrochloride (4944 ppm guanidine)
SMILES,Bacterial growth Day 1 ([1]; emulsion paint +500 ppm BIT),Bacterial growth Day 6 ([1]; emulsion paint +500 ppm BIT),"Yeast growth Day 1 [2, 5]","Yeast growth Day 3 [2, 5]",Yeast growth Day 1 ([3]; detergent +100 ppm BIT),Yeast growth Day 3 ([3]; detergent +100 ppm BIT),"Qb (BIT): concentration of BIT as the sole agent that shows an endpoint (QB, MIC) ([4]; BIT alone (0 ppm guanidine), MHB, 10^6 microbes per ml) [ppm]",Synergy index Qa/QA + Qb/QB [4],"Bacterial growth Day 1 [1, 6]","Bacterial growth Day 6 [1, 6]","Yeast growth Day 1 [2, 7]","Yeast growth Day 3 [2, 7]","Yeast growth Day 1 [3, 8]","Yeast growth Day 3 [3, 8]","Qa (guanidine): concentration of guanidine as the sole agent that shows an endpoint (QA, MIC) ([4]; guanidine alone (0 ppm BIT), added as guanidine hydrochloride, MHB) [ppm]"
"O=c1[nH]sc2ccccc12 [BIT, 1,2-benzisothiazolin-3-one]",6,6,6,"4 (Uniform growth, >400 colonies, single colonies still clearly recognizable)",6,"4 (Uniform growth, >400 colonies, single colonies still clearly recognizable)",300,1.00,,,,,,,
N=C(N)N [guanidine hydrochloride],,,,,,,,,6,6,6,"4 (Uniform growth, >400 colonies, single colonies still clearly recognizable)",6,6,
N=C(N)N [guanidine],,,,,,,,1.00,,,,,,,9269
